Our source for the MIC, hemolysis and Activity values is ChEMBL document CHEMBL4610074, “Somuncurins: Bioactive Peptides from the Skin of the Endangered Endemic Patagonian Frog Pleurodema somuncurense” (J Nat Prod, 2020).

Calls of active or inactive are those of the source. The calls are words filed in the database; no cut-off is given here. Bounds are passed on as bounds.

In data set [1] the test system is Escherichia coli. The data set can be described thus: Antibacterial activity against Escherichia coli ATCC 25922 incubated for 24 hrs under aerobic condition. The data set is classed as functional. The note with it: ATCC 25922, 24 h.
The subject of data set [2] is Staphylococcus aureus. As to the kind of experiment: Antibacterial activity against Staphylococcus aureus ATCC 29213 incubated for 24 hrs under aerobic condition. The data set is classed as functional. The note with it: ATCC 29213, 24 h.
Data set [3] in a line: (§1) Hemolytic activity in human RBC at 180 uM measured after 1 hr relative to control. The note with it: red blood cells (erythrocytes), read-out: Activity. The data set is classed as ADME, cell-based, Erythrocyte.
A short description of data set [4]: Cytotoxicity against human MDM cells after 24 hrs by resazurin dye based fluorescence assay. Type of data set: cell-based.
Data set [5] in a line: Effect on LPS-induced ROS production in human CHME3 cells measured for 30 mins by microscopic method. The data set is classed as ADME, cell-based. The following applies: 0.5 h.
For data set [6], the system named is Lipid bilayer. The data set can be described thus: Binding affinity to Escherichia coli lipid extract large unilamellar vesicles incubated for 30 mins by laser-doppler technique.
The subject of data set [7] is Lipid bilayer. The data set can be described thus: Binding affinity to Escherichia coli lipid extract large unilamellar vesicles assessed as change in tryptophan emission Spectra incubated for 30 mins by spectrofluorometric method.
Data set [8] concerns Lipid bilayer. As to the kind of experiment: Induction of pore formation in Escherichia coli lipid extract giant unilamellar vesicles at 640 ug/ml after 25 mins by fluorescence confocal microscopy. The data set is classed as functional.
For data set [9], the system named is Lipid bilayer. As to the kind of experiment: Induction of rearrangement in Escherichia coli lipid extract large unilamellar vesicles assessed as altered colloidal property at 140 ug/ml to 640 ug/ml by dynamic light scattering analysis. The data set is classed as functional.
Data set [10] concerns Lipid bilayer. The data set can be described thus: Induction of lipid aggregation in Escherichia coli lipid extract large unilamellar vesicles at 270 ug/ml by dynamic light scattering analysis. The data set is classed as functional.
The test system of data set [11] is Lipid bilayer. As to the kind of experiment: Induction of lipid aggregation in PC/bovine brain SPM/cholesterol large unilamellar vesicles at 140 ug/ml to 640 ug/ml by dynamic light scattering analysis.
For data set [12], the system named is Lipid bilayer. As to the kind of experiment: Induction of membrane disruption in Escherichia coli lipid extract large unilamellar vesicles assessed as carboxyfluorescein leakage at 640 ug/ml by fluorescence assay. The data set is classed as functional.
The subject of data set [13] is Lipid bilayer. The data set can be described thus: Induction of membrane disruption in PC/bovine brain SPM/cholesterol large unilamellar vesicles assessed as carboxyfluorescein leakage at 640 ug/ml by fluorescence assay.
In data set [14] the test system is Lipid bilayer. The data set can be described thus: Induction of membrane disruption in Escherichia coli lipid extract large unilamellar vesicles assessed as carboxyfluorescein leakage at 250 ug/ml by fluorescence assay. The data set is classed as functional.
The test system of data set [15] is Erythrocyte. The description is as §1. Type of data set: ADME, cell-based. The note with it: erythrocyte, 1 h, 180 µM.

As for H-DLASLARLYALAR-NH2, the MIC in data set [1] and in data set [2] was more than 700 µg/mL throughout.

H-DLLNGLLNPVLGIANGLTGGLVKK-NH2: the minimum inhibitory concentration (MIC) in data set [1] and in data set [2] was more than 700 µg/mL each time.

With H-FIIWPLRYRK-NH2, the minimum inhibitory concentration (MIC) in data set [1] came out at 180 µM; in data set [2], 360 µM. For the same substance, in data set [3], the hemolysis at 1 h, 180 µM is less than 5%. For the same substance, the Activity result in data set [4] was “Non-Toxic”; in [5] it was “Non-Toxic”; in [6], 36 mV; in data set [11], “Non-Toxic”; in data set [12], 100%; in data set [13], 20%. For the same substance, the outcome in data set [7] and in [8] was inactive. The result in data set [9], in data set [10] and in [14] was Active.

With H-FILKRSYPQYY-NH2, the minimum inhibitory concentration (MIC) is 410 µM in data set [1] and more than 700 µg/mL in data set [2]. For the same substance, the Activity result was “Non-Toxic” in data set [15], “Non-Toxic” in [4], “Non-Toxic” in data set [5] and 23 mV in data set [6].

H-NLVGSLLGGILKK-NH2: the minimum inhibitory concentration (MIC) in data set [1] was 460 µM; in data set [2] it was more than 700 µg/mL. The Activity entry in data set [15] is “Non-Toxic”; in [4] it was “Non-Toxic”; in data set [6], 18 mV.

For H-NNEENELRRRVSFNRAVIHSLLG-NH2, the MIC in data set [1] and in data set [2] was more than 700 µg/mL each time.

With H-VSFNRAVIHSLLG-NH2, the MIC in data set [1] and in data set [2] was more than 700 µg/mL throughout.

For H-YYQVSEERRRDLASLARLYALAR-NH2, the minimal inhibitory concentration (MIC) in data set [1] and in data set [2] was more than 700 µg/mL throughout.
